Patent US7453011B2, “Cycloalkyl substituted polyamines for cancer therapy and methods of synthesis therefor” (Progen Pharmaceuticals, Inc., priority 2001, dated 2008)
Where a name gives a salt, the structure may show the parent alone. Read-outs that look alike come from different tables or passages of the source. Values belong to the molecule of their own block, whether it stands above or below them.

Experiments:
[1] = system: DuPro human prostate cancer cell line; assay: MTT assay, DuPro cells; assay type: cell-based
Procedure: (§1) The polyamine analogs inhibited prostate cancer cell growth in vitro., as indicated in Table 1 and FIG. 1, FIG. 2, FIG. 3, FIG. 4, and FIG. 5. Tissue cultures and the MTT assay were performed as follows. Additional protocols for in vitro assays are disclosed in International Patent Applications WO 00/66175, WO 00/66528, WO 00/66587, WO 98/17624, Valasinas et al., J. Med. Chem. 44:390-403 (2001), and U.S. Provisional Patent Application Ser. No. 60/329,982 filed Oct. 16, 2001.
(§2) Tissue Culture. Cells were seeded into 75 cm^2 culture flasks with 15 ml of Eagle's minimal essential medium supplemented with 10% fetal calf serum and nonessential amino acids. The flasks were incubated in a humidified 95% air/5% CO2 atmosphere. The cells were grown for at least 24 h to ensure that they are in the log phase of growth and then they were treated with the polyamine analogs. Cells were harvested by treatment for 5 min with STV (saline A, 0.05% trypsin, 0.02% EDTA) at 37° C. The flasks were rapped on the lab bench, pipetted several times and aliquots of cell suspension were withdrawn and counted using a Coulter particle counter that has been standardized for counting each cell line using a hemacytometer.
(§3) MTT Assay: Trypsinized cell suspensions were diluted to seed 80 μl suspensions containing 500 cells in each well of a 96 well Corning microtiter plate and incubated overnight at 37° C. in a humidified incubator in 5% CO2. 20 μl of appropriately diluted stock solution of each drug (i.e., polyamine analog) were added to the middle 8 columns of cell suspension in the microtiter plates. Each drug concentration was run in quadruplicate. Outer columns of the plates were used for buffer controls. Cells were incubated with the drug for 6 days at 37° C. in 5% CO2/H2O atmosphere. 25 μl of 5 mg/ml solution of 3-(4,5-dimethylthiazol-2-yl)-2,5-diphenyl tetrazolium bromide (MTT) were added to each well and incubated for 4 hours at 37° C. in 5% CO2/H2O incubator. Cells were lysed by incubating overnight with 100 μl lysis buffer (500 ml of the lysis buffer contains: 100 g lauryl sulfate (SDS), 250 ml of N,N-dimethylformamide, and 2 ml of glacial acetic acid, made up to volume with water; pH 4.8).
(§4) The color was monitored at room temperature at 570 nm in a E-max Precision Microplate Reader (Molecular Devices Corporation, Sunnyvale, Calif.) and data was analyzed using cell survival software supplied by Molecular Devices Corporation.
(§5) The effects of SL-11218 and SL-11231 on the growth of human prostate tumor cell lines PC-3, DU-145, DuPro and LnCap and on human breast cancer cell lines MCF-7 and MDA-MB-231 in culture were determined by an MTT assay. The growth inhibitory effects were expressed as ID50 value which is defined as the drug concentration required to inhibit 50% cell growth after 5 days of treatment. The results are shown in Table 2; the numbers are the average of the values determined in at least three separate experiments. Both compounds are effective in inhibiting human prostate tumor cell growth in culture.

[2] = system: PC-3 human prostate cancer cell line; assay: MTT assay, PC-3 cells; assay type: cell-based
Procedure: as §1, §2, §3, §4, §5

[3] = system: DU145 human prostate cancer cell line; assay: MTT assay, DU145 cells; assay type: cell-based; details: read-out: ID50 DU145
Procedure: as §1, §2, §3, §4, §5

[4] = system: DU-145 human prostate tumor xenograft; assay: DU-145 human prostate tumor xenograft in nude mice; assay type: in vivo
Procedure: (§6) Male athymic nude mice were given s.c. injections of 1×10^6 DU-145 cells on Day 0. Beginning on Day 7, mice were treated i.p q1w×4 for 3 cycles with either saline, 50 mg/kg SL-11218 or 75 mg/kg SL-11218 (pH 7.4) i.p. at 10 ml/kg dosing volume. (Cage issues in the control cage were due to a water bottle leaking and lack of food for 24 hours.) The treatment was carried out once weekly for four weeks (q1w×4) in 3 cycles with a 4 week gap between each cycle. (i.e., cycle 1, administration on days 7, 14, 21, 28; cycle 2, administration on days 49, 56, 63, 70; cycle 3, administration on days 98, 105, 112, 119). All p values were compared to vehicle treated mice.
(§7) The effect of SL-11231 at 12.5 mg/kg for 5 consecutive days against DU-145 human prostate tumor xenograft in nude mice is shown in FIG. 8a. […] (Note that the value reported in Table 1 for SL-11231 versus DU-145 cells is for a single experiment, while the value reported in Table 2 is an average of multiple experiments.)

[5] = Body weight of DU-145 tumor-bearing nude mice under treatment; assay type: in vivo
Procedure: as §6, §7
(§8) In addition, SL-11218 at a dose of 75 mg/kg i.p. for q1w×4 stabilized large (˜2000 mm^3) DU-145 tumor xenograft for 2 cycles with a 4 week gap between each cycle (FIG. 11a). Male athymic nude mice were given s.c. injections of 1×10^6 DU145 cells on Day 0. Beginning on Day 10, mice were given acidified water vehicle orally at 10 ml/kg dosing volume 1× weekly for 8 weeks. On D66 mice began weekly treatment of saline versus SL-11218 i.p. After cycle 1 there was a 27% reduction in tumor volume compared to vehicle treated controls. After cycle 2 there was a significant reduction of 64% with 15% drop in body weight which recovered between cycles. (Cycle 1, administration on days 66, 73, 80, 87; cycle 2, administration on days 115, 122, 129, 136.) BW p values were compared to untreated controls. At d87, p=0.005 for SL-11218. (For saline vehicle, n=9; at d 87 n=8; at d 101, n=4; for SL-11218 n=9; d 80 n=7; d 101 n=5). FIG. 11b indicates the effect of SL-11218 on animal bodyweight (saline vehicle, n=9, at d87, n=8; at d101 n=4; for SL-11218, n=9; at d80, n=7, at d101 n=5; p=0.015 at d98 and 0.001 at d132).

[6] = system: MDA-MB-231 human breast cancer cell line; assay: MTT assay, MDA-MB-231 cells; assay type: cell-based; details: Table 2, 5 days of treatment, average of at least three experiments, read-out: ID50 MDA-MB-231
Procedure: as §3, with “Cells were lysed by incubating overnight with 100 μl lysis buffer (500 ml of the lysis buffer contains: 100 g lauryl sulfate (SDS), 250 ml of N,N-dimethylformamide, and 2 ml of glacial acetic acid, made up to volume with water; pH 4.8).” left out
as §4
(§9) The effects of SL-11218 and SL-11231 on the growth of human prostate tumor cell lines PC-3, DU-145, DuPro and LnCap and on human breast cancer cell lines MCF-7 and MDA-MB-231 in culture were determined by an MTT assay. […] The results are shown in Table 2; the numbers are the average of the values determined in at least three separate experiments. […]

[7] = system: large (~2000 mm^3) DU-145 tumor xenograft; assay: Large DU-145 tumor xenograft in nude mice; assay type: in vivo
Procedure: as §8

[8] = system: BxPC-3 human pancreatic tumor xenograft; assay: Human pancreatic tumor xenograft in nude mice; assay type: in vivo; details: 10 days break
[9] = system: DuPro human prostate tumor cell line; assay: Colony forming efficiency (CFE) assay, DuPro; assay type: cell-based; details: FIG. 6
[10] = system: MCF-7 human breast cancer cell line; assay: MTT assay, MCF-7 cells; assay type: cell-based; details: for IC50: Table 2, 5 days of treatment, average of at least three experiments, read-out: ID50 MCF-7
Procedure: as §3, §4, §5

[11] = system: LnCap human prostate cancer cell line; assay: MTT assay, LnCap cells; assay type: cell-based; details: read-out: ID50 LnCap
Procedure: as §1, §2
MTT Assay: Trypsinized cell suspensions were diluted to seed 80 μl suspensions containing 500 cells in each well of a 96 well Corning microtiter plate and incubated overnight at 37° C. in a humidified incubator in 5% CO2. […]
as §4, §9

[12] = system: Tsu-pr1 human prostate cancer cell line; assay: MTT assay, Tsu-pr1 cells; assay type: cell-based; details: Table 1, read-out: ID50 Tsu-pr1
Procedure: as §1
as §2, with “Cells were harvested by treatment for 5 min with STV (saline A, 0.05% trypsin, 0.02% EDTA) at 37° C.” left out, “hemacytometer. […]” for “hemacytometer.”
as §4

[13] = system: Tsu-pr1-ADR human prostate cancer cell line; assay: MTT assay, Tsu-pr1-ADR cells; assay type: cell-based; details: Table 1, read-out: ID50 Tsu-pr1-ADR
Procedure: as §1
as §2, with “Cells were harvested by treatment for 5 min with STV (saline A, 0.05% trypsin, 0.02% EDTA) at 37° C.” left out, “hemacytometer. […]” for “hemacytometer.”
as §4

[14] = system: L1210 leukemia or Lewis lung carcinoma; details: L1210 leukemia or Lewis lung carcinoma grafted in athymic nude mice; cited from earlier work
[15] = multiple injection (ip) schedules; cited from earlier work
[16] = Table 1, human prostate cancer cell line DuPro, read-out: ID50 DuPro
[17] = Table 1, PC-3, read-out: ID50 PC-3
[18] = Table 1, DU145, SL-11231 value from a single experiment
[19] = Table 2, 5 days of treatment, average of at least three experiments, read-out: ID50 DUPRO
[20] = Table 2, 5 days of treatment, average of at least three experiments, read-out: ID50 PC3
[21] = Table 2, 5 days of treatment, average of at least three experiments

Compound: CCNCC1CC1CNCC1CC1CNCC1CC1CNCC (mixture of isomers) [SL-11215]
IC50 [1, 16]: 630 nM | IC50 [2, 17]: > 31200 nM | IC50 [3, 18]: 60 nM

Compound: NCCCCNCC1CC1CNCCCCN (racemic) [SL-11245]
IC50 [1, 16]: > 31200 nM | IC50 [2, 17]: > 31200 nM | IC50 [3, 18]: 610 nM

Compound: CC(C)(C)NCCCCNCC1CC1CNCCCCNC(C)(C)C (racemic) [SL-11247]
IC50 [1, 16]: > 31200 nM | IC50 [2, 17]: > 31200 nM | IC50 [3, 18]: 11200 nM

Compound: CCNCCCCNCCCCNCCCCNCC [BE-4-4-4, ^1N,^14N-bisethylhomospermine]
increase in lifespan as compared to control [14]: ca. 6 fold | maximum tolerated dose (MTD) [15]: ca. 6 mg/kg

Compound: CCNCCCCNCC1CC1CNCCCCN (stereo not drawn) [SL-11242]
IC50 ([2]; Homo sapiens, Table 1, PC-3, read-out: ID50 PC-3): > 31200 nM

Now from value to molecule, other results behind:

IC50 [1, 16]: 260 nM | IC50 [1, 19]: 260 nM | IC50 [2, 17]: > 31200 nM | IC50 [2, 20]: > 31200 nM | IC50 [6]: > 31200 nM | IC50 [3, 18]: 63 nM | IC50 [3, 21]: 60 nM | IC50 [10]: 4250 nM
Compound: CCNCC1CC1CNCCCCNCC1CC1CNCC.Cl.Cl.Cl.Cl (mixture of isomers) [SL-11218]
effect on tumor growth ([4]; 50 mg/kg i.p. q1w×4, 3 cycles): temporarily arrested tumor growth | effect on tumor growth ([4]; 75 mg/kg i.p. q1w×4, 3 cycles): arrested tumor growth throughout the treatment period of 120 days | bodyweight loss ([5]; 75 mg/kg i.p. q1w×4, 3 cycles, 120 days, DU-145 xenograft): without appreciable bodyweight loss | drop in body weight ([5]; 75 mg/kg i.p. q1w×4, after cycle 2, large DU-145 xenograft, recovered between cycles): 15% | effect on large tumor xenograft ([7]; 75 mg/kg i.p. q1w×4, 2 cycles): stabilized | reduction in tumor volume compared to vehicle treated controls ([7]; 75 mg/kg i.p. q1w×4, after cycle 1): 27% | reduction in tumor volume compared to vehicle treated controls ([7]; 75 mg/kg i.p. q1w×4, after cycle 2): 64% | effect on human pancreatic tumor growth ([8]; 50 mg/kg i.p. q1d×5, 2 cycles): effectively inhibit human pancreatic tumor growth | cytotoxicity by CFE assay [9]: marked cytotoxicity | activity against MCF-7 breast cancer cells ([10]; in words): some activity

IC50 ([11]; Table 1, LnCap): 150 nM | IC50 [11, 21]: 150 nM | IC50 [1, 16]: 380 nM | IC50 [1, 19]: 380 nM | IC50 [2, 17]: > 31200 nM | IC50 [2, 20]: > 31200 nM | IC50 [6]: > 31200 nM | IC50 [3, 18]: 80 nM | IC50 [3, 21]: 120 nM | IC50 [10]: > 31200 nM
Compound: CCNCCCCNCC1CC1CNCCCCNCC1CC1CNCCCCNCC (mixture of isomers) [SL-11231]
effect on tumor growth ([4]; 12.5 mg/kg for 5 consecutive days): efficiently inhibits tumor growth | effect on animal bodyweight ([5]; 12.5 mg/kg for 5 consecutive days, DU-145 xenograft): without appreciable effects on animal bodyweight | effect on human pancreatic tumor growth ([8]; 12.5 mg/kg i.p. q1d×5, 2 cycles): effectively inhibit human pancreatic tumor growth

IC50 ([11]; Table 1, LnCap): 210 nM | IC50 [1, 16]: 200 nM | IC50 [2, 17]: 4170 nM | IC50 [12]: 70 nM | IC50 [13]: > 31200 nM | IC50 [3, 18]: 10 nM
Compound: CCNCCCCNCC1CC1CNCCCCNCC (racemic) [SL-11093]

IC50 [1, 16]: 340 nM | IC50 [2, 17]: 400 nM | IC50 [3, 18]: 200 nM
Compound: CCNCCCCNCCCCNCCCCNCCCCNCC1CC1CNCCCCNCCCCNCCCCNCCCCNCC (racemic) [SL-11241]

IC50 [1, 16]: 200 nM | IC50 [2, 17]: 300 nM
Compound: CCNCCCCNCC1CC1CNCCCCNCCCCNCC1CC1CNCCCCNCCCCNCC1CC1CNCCCCNCC (stereo not drawn) [SL-11232, 10,11-25,26-40,41-ter[(E)-1,2-cyclopropyl]-3,8,13,23,28,33,38,43,48-decaazapentacontane decahydrochloride]
